Measured values: patent US7560466B2, “Methods of treating or preventing autoimmune diseases with 2,4-pyrimidinediamine compounds” (Rigel Pharmaceuticals, Inc., priority 2003, dated 2009)
Where two headings read alike, the source gives them in different places.

Test system: cultured human mast cells (CHMC), IgE-induced degranulation
Assay: CHMC low cell density IgE activation: tryptase assay
Assay type: cell-based
Procedure: Inhibition of degranulation was measured at both low and high cell density by quantifying the release of the granule specific factors tryptase, histamine and hexosaminidase. Inhibition of release and/or synthesis of lipid mediators was assessed by measuring the release of leukotriene LTC4 and inhibition of release and/or synthesis of cytokines was monitored by quantifying TNF-α, IL-6 and IL-13. Tryptase and hexosaminidase were quantified using fluorogenic substrates as described in their respective examples. […] The protocols of the various assays are provided below.
A second phase is performed to convert the expanded CD34-negative progenitor cells into differentiated mucosal mast cells. These mucosal cultured human mast cells (“CHMC”) are derived from CD34+ cells isolated from umbilical cord blood and treated to form a proliferated population of CD34-negative progenitor cells, as described above. […] Also, the cytokine composition of the medium was modified such that it contained SCF (200 ng/mL) and recombinant human IL-6 (200 ng/mL; Peprotech, Catalog No. 200-06 reconstituted to 100 ug/mL in sterile 10 mM acetic acid) (“CM/SCF/IL-6 medium”).
Pellet CHMC cells (980 rpm, 10 min) and resuspend in pre-warmed MT. Add 65 ul of cells to each 96-well plate. Depending on the degranulation activity for each particular CHMC donor, load 1000-1500 cells/well. Mix four times followed by a 1 hr incubation at 37° C. […] Stimulate cells by adding 25 ul of 6× anti-IgE solution to the appropriate plates. Add 25 ul MT to un-stimulated control wells. Mix twice following addition of the anti-IgE. Incubate at 37° C. for 30 minutes. […] Spin plates at 1000 rpm for 10 min to pellet cells. Transfer 25 ul of supernatant to a 96-well black bottom plate and add 100 ul of freshly diluted tryptase substrate solution to each well. Incubate plates at room temperature for 30 min.
In Table 1, all reported values are IC50s (in μM). […] In Table 1, all reported values are IC50s (in μM).

[1] = low cell density CHMC, 8pt, read-out: LD Tryptase, CHMC, IgE, 8pt
[2] = low cell density CHMC, 3pt, read-out: LD Tryptase, CHMC, IgE, 3pt
[3] = Homo sapiens, Mast cell, low cell density CHMC, 8pt, read-out: LD Tryptase, CHMC, IgE, 8pt
[4] = CHMC low cell density, 3pt, read-out: LD Tryptase, CHMC, IgE, 3pt
[5] = CHMC low cell density, 8pt, read-out: LD Tryptase, CHMC, IgE, 8pt

With `CC1C(=O)Nc2cc(Nc3nc(Nc4cccc(O)c4)ncc3F)ccc2S1(=O)=O` (racemic) [Compound 284, racemic-5-Fluoro-N2-[3-hydoxyphenyl]-N4-(2-methyl-1,1,3-trioxo-2H,4H-benzo[1,4]thiazin-6-yl)-2,4-pyrimidinediamine] the IC50 [1] was < 10 µM.

For `CNC(=O)COc1cccc(Nc2ncc(F)c(Nc3ccc4c(c3)NC(=O)C(C)S4(=O)=O)n2)c1` (racemic) [Compound 285, racemic-5-Fluoro-N2-[3-(N-methylamino)carbonylmethyleneoxyphenyl]-N4-(2-methyl-1,1,3-trioxo-2H,4H-benzo[1,4]thiazin-6-yl)-2,4-pyrimidinediamine], the IC50 [1] was < 10 µM.

With `CC1Sc2ccc(Nc3nc(Cl)ncc3F)cc2NC1=O` (racemic) [Compound 314, racemic-N2-Chloro-5-fluoro-N4-(2-methyl-3-oxo-2H,4H-benzo[1,4]thiazin-6-yl)-4-pyrimidinea mine] the IC50 [2] was < 10 µM.

With `CC1C(=O)Nc2cc(Nc3nc(Cl)ncc3F)ccc2S1(=O)=O` (racemic) [Compound 317, racemic-N2-Chloro-5-fluoro-N4-(2-methyl-1,1,3-trioxo-2H,4H-benzo[1,4]thiazin-6-yl)-4-pyrimidinea mine] the IC50 [2] was > 10 µM.

In the case of `C[C@H]1Oc2ccc(Nc3nc(Nc4cc5c6c(c4)c(CCO)cn6CCO5)ncc3F)cc2NC1=O` [Compound 205, (R)-5-Fluoro-N2-[6-(2-hydroxyethyl)-2,3-dihydropyrrolo[1,2,3-d,e]benzoxazin-8-yl]-N4-(2-methyl-3-oxo-2H,4H-benz[1,4]oxazin-6-yl)-2,4-pyrimidinediamine], the IC50 [1] is reported as < 10 µM.

For `CC1(C)COc2ccc(Nc3nc(Nc4cc5c6c(c4)c(CCO)cn6CCO5)ncc3F)cc2N1` [Compound 206, N4-(3,4-Dihydro-3,3-dimethyl-2H,4H-benz[1,4]oxazin-6-yl)-5-fluoro-N2-[6-(2-hydroxyethyl)-2,3-dihydropyrrolo[1,2,3-d,e]benzoxazin-8-yl]-2,4-pyrimidinediamine], the IC50 [1] was < 10 µM.

For `O=C1COc2cc(Nc3nc(Nc4ccc(-c5ncco5)cc4)ncc3F)ccc2N1` [Compound 241], the IC50 [3] was < 10 µM.

For `CNC(=O)COc1cccc(Nc2ncc(F)c(Nc3ccc4c(c3)NC(=O)C(C)(C)S4(=O)=O)n2)c1` [Compound 275, N4-(2,2-Dimethyl-1,1,3-trioxo-4H-benzo[1,4]thiazin-6-yl)-5-fluoro-N2-[3-(N-methylamino)carbonylmethyleneoxyphenyl]-2,4-pyrimidinediamine], the IC50 [1] was < 10 µM.

For `COc1ccc(Nc2ncc(F)c(Nc3ccc4c(c3)NC(=O)C(C)(C)S4(=O)=O)n2)cc1Cl` [Compound 276], the IC50 [1] was < 10 µM.

`CNC(=O)COc1cccc(Nc2ncc(F)c(Nc3ccc4c(c3)NC(=O)C(C)S4)n2)c1` (stereo not drawn) [Compound 279, 5-Fluoro-N2-[3-(N-methylamino)carbonylmethyleneoxyphenyl]-N4-(2-methyl-3-oxo-2H,4H-benzo[1,4]thiazin-6-yl)-2,4-pyrimidinediamine] was tested, and the IC50 [1] was < 10 µM.

For `CC1(C)C(=O)Nc2cc(Nc3nc(Nc4cccc(O)c4)ncc3F)ccc2S1(=O)=O` [Compound 283, racemic-N4-(2,2-Dimethyl-1,1,3-trioxo-4H-benzo[1,4]thiazin-6-yl)-5-fluoro-N2-[3-hydoxyphenyl]-2,4-pyrimidinediamine], the IC50 [1] was < 10 µM.

For `COc1ccc(Nc2ncc(F)c(Nc3ccc4c(c3)NC(=O)C(C)(C)S4)n2)cc1Cl` [Compound 289], the IC50 [1] was < 10 µM.

For `CNC(=O)COc1cccc(Nc2ncc(F)c(Nc3ccc4c(c3)NC(=O)C(C)(C)S4)n2)c1` [Compound 294, N4-(2,2-Dimethyl-3-oxo-4H-benzo[1,4]thiazin-6-yl)-5-fluoro-N2-[3-(N-methylamino)carbonylmethyleneoxyphenyl]-2,4-pyrimidinediamine], the IC50 [2] was < 10 µM and the IC50 [1] was < 10 µM.

`COc1ccc(Nc2ncc(F)c(Nc3ccc4c(c3)NC(=O)C(C)(C)S4)n2)cc1F` [Compound 299] was tested, and the IC50 [2] was < 10 µM and the IC50 [1] was < 10 µM.

In the case of `CNC(=O)COc1cccc(Nc2ncc(F)c(Nc3ccc4c(c3)NC(=O)CS4(=O)=O)n2)c1` [Compound 305, 5-Fluoro-N2-[3-(N-methylamino)carbonylmethyleneoxyphenyl]-N4-(1,1,3-trioxo-2H,4H-benzo[1,4]thiazin-6-yl)-2,4-pyrimidinediamine], the IC50 [1] is reported as < 10 µM.

For `COc1cc(Nc2ncc(F)c(Nc3ccc4c(c3)NC(=O)CS4(=O)=O)n2)cc(OC)c1OC` [Compound 306, 5-Fluoro-N2-(3,4,5-triimethoxylphenyl)-N4-(1,1,3-trioxo-2H,4H-benzo[1,4]thiazin-6-yl)-2,4-pyrimidinediamine], the IC50 [1] was < 10 µM.

`O=C1CSc2ccc(Nc3nc(Cl)ncc3F)cc2N1` [Compound 313, N2-Chloro-5-fluoro-N4-(3-oxo-2H,4H-benzo[1,4]thiazin-6-yl)-4-pyrimidinea mine] was tested, and the IC50 [2] was < 10 µM.

`O=C1CS(=O)(=O)c2ccc(Nc3nc(Cl)ncc3F)cc2N1` [Compound 315, N2-Chloro-5-fluoro-N4-(1,1,3-trioxo-2H,4H-benzo[1,4]thiazin-6-yl)-4-pyrimidinea mine] was tested, and the IC50 [2] was > 10 µM.

With `CC1(C)Sc2ccc(Nc3nc(Cl)ncc3F)cc2NC1=O` [Compound 316, N2-Chloro-N4-(2,2,-dimethyl-3-oxo-4H-benzo[1,4]thiazin-6-yl)-5-fluoro-4-pyrimidinea mine] the IC50 [2] was < 10 µM.

`CC1(C)C(=O)Nc2cc(Nc3nc(Cl)ncc3F)ccc2S1(=O)=O` [Compound 318, N2-Chloro-N4-(2,2-dimethyl-1,1,3-trioxo-4H-benzo[1,4]thiazin-6-yl)-5-fluoro-4-pyrimidinea mine] was tested, and the IC50 [2] was < 10 µM.

For `CC1(C)COc2ccc(Nc3nc(Cl)ncc3F)cc2N1` [Compound 320, N2-Chloro-N4-(3,3-dimethyl-1,4-benzoxazin-6-yl)-5-fluoro-pyrimidinea mine], the IC50 [2] was < 10 µM.

`OC=C1C=C(Nc2ncc(F)c(Nc3ccc4c(c3)OCCO4)n2)CC(=CO)C1` [Compound 342] was tested, and the IC50 [3] was < 10 µM.

For `CNC(=O)n1ccc2ccc(Nc3ncc(F)c(Nc4ccc5c(c4)NC(=O)C(C)(C)O5)n3)cc21` [Compound 347, N4-(2,2-Dimethyl-3-oxo-4H-benz[1,4]oxazin-6-yl)-N2-[1-(N-methylaminocarbony)lindol-6-yl)-5-fluoro-2,4-pyrimidinediamine], the IC50 [2] was < 10 µM.

In the case of `Cc1cc(C)cc(Nc2ncc(F)c(Nc3ccc4c(c3)OC(F)(F)C(F)(F)O4)n2)c1` [Compound 362, N2-(3,5-Dimethyphenyl)-5-fluoro-N4-[3,4-(tetrafluoroethylenedioxy)phenyl]-2,4-pyrimidinediamine], the IC50 [4] is reported as < 10 µM and the IC50 [5] is reported as > 10 µM.

`Cc1cc(Nc2ncc(F)c(Nc3ccc4c(c3)OC(F)(F)C(F)(F)O4)n2)cc(C(F)(F)F)c1` [Compound 366, 5-Fluoro-N2-(3-methyl-5-trifluoromethyl)-N4-[3,4-(tetrafluoroethylenedioxy)phenyl]-2,4-pyrimidinediamine] was tested, and the IC50 [4] was < 10 µM.

`CN(c1ccc2c(c1)OCCO2)c1nc(NN)ncc1F` [Compound 533, N4-(3,4-Ethylenedioxyphenyl)-5-fluoro-N4-methyl-2-hydrazine-4-pyrimidinea mine] was tested, and the IC50 [4] was > 10 µM.

With `CNC(=O)COc1c(C)cc(Nc2ncc(F)c(Nc3ccc4c(c3)OCCO4)n2)cc1C` [Compound 572, N2-[3,5-dimethyl-4-(N-methylamino)carbonylmethyleneoxyphenyl]-N4-(3,4-ethylenedioxyphenyl)-5-fluoro-2,4-pyrimidinediamine] the IC50 [4] was < 10 µM and the IC50 [5] was < 10 µM.

With `CNC(=O)COc1c(C)cc(Nc2ncc(F)c(Nc3ccc4c(c3)NC(=O)C(C)(C)O4)n2)cc1C` [Compound 574, N2-[3,5-dimethyl-4-(N-methylamino)carbonylmethyleneoxyphenyl]-N4-(2,2-dimethyl-3-oxo-4H-benz[1,4]oxazin-6-yl)-5-fluoro-2,4-pyrimidinediamine] the IC50 [4] was < 10 µM and the IC50 [5] was < 10 µM.

`CNC(=O)Cn1ccc2cc(Nc3ncc(F)c(Nc4ccc5c(c4)OCCO5)n3)ccc21` [Compound 655, N4-(3,4-Ethylenedioxyphenyl)-5-fluoro-N2-[1-(N-methylamino)carbonylmethyleneindol-5-yl]-2,4-pyrimidinediamine] was tested, and the IC50 [5] was < 10 µM.

`COc1cc(Nc2ncc(F)c(Nc3ccc4c(n3)NC(=O)C(C)(C)O4)n2)cc(OC)c1OC.O=S(=O)(O)c1ccc(O)cc1` [Compound 676, N4-(2,2-Dimethyl-3-oxo-4H-5-pyrid[1,4]oxazin-6-yl)-5-fluoro-N2-(3,4,5-trimethoxyphenyl)-2,4-pyrimidinediamine 4-Hydroxybenzenesulfonic Acid Salt] was tested, and the IC50 [4] was < 10 µM and the IC50 [5] was < 10 µM.
